US20240148821A1, “PHARMACEUTICAL USE OF CYCLIC PEPTIDE COMPOUND” (CHUGAI SEIYAKU KABUSHIKI KAISHA, priority 2021, published 2024)
Numbered stars: 1 amine (or outer) side, 2 acyl side, 3 side chain; on linkers, the order of the positions; unused ones are H or OH. Bridge positions count the residues as written; N and C are the ends. Square brackets hold non-standard residues; d marks the D form. Peptide text beside a SMILES is read from it. * marks the point of attachment. hPhe(3-Cl-4-CF3) = N[C@@H](CCc1ccc(C(F)(F)F)c(Cl)c1)C(=O)O; hPhe(3-F,4-CF3) = N[C@@H](CCc1ccc(C(F)(F)F)c(F)c1)C(=O)O; NMedβ3hAla = C[C@H](CC(=O)[*:2])N(C)[*:1]; NMePhe(2-F) = CN[C@@H](Cc1ccccc1F)C(=O)O; NMeGly(cPent) = CN[C@H](C(=O)O)C1CCCC1; Phe(3-I) = N[C@@H](Cc1cccc(I)c1)C(=O)O; NMeY = CN[C@@H](Cc1ccc(O)cc1)C(=O)O; NMeCha = CN[C@@H](CC1CCCCC1)C(=O)O; N(isopentyl)Gly = CC(C)CCNCC(=O)O; NMeChg = CN[C@H](C(=O)O)C1CCCCC1; NMeD = CN[C@@H](CC(=O)O)C(=O)O; NMeL = CN[C@@H](CC(C)C)C(=O)O; NMeV = CN[C@H](C(=O)O)C(C)C; Trifluoroethyl = FC(F)(F)C*; d(β3hA) = C[C@@H](N)CC(=O)O; NMeS = CN[C@@H](CO)C(=O)O; NMeA = CN[C@@H](C)C(=O)O; NMeAib = CNC(C)(C)C(=O)O; Piperidide = C1CCN(*)CC1; Pra = C#CC[C@H](N)C(=O)O; Ac5c = NC1(C(=O)O)CCCC1; Aze = O=C(O)[C@@H]1CCN1; Cyclobutyl = C1CC(*)C1; CF3 = FC(F)(F)*; Sar = CNCC(=O)O

test system: Human pancreatic cancer cell line AsPC-1 (G12D mutation Kras); assay: AsPC-1 cell growth inhibition (AsPC-1 CGI); format: cell-based; conditions: read-out: AsPC-1 cell growth inhibition, 50% growth inhibitory concentration (IC50 value); 96 hours, CellTiter-Glo, values classified in ranges
Procedure: Test compounds were serially dilated with dimethyl sulfoxide, and 200 nL was then dispensed to a U-bottom 96-well plate using Labcyte Echo. […] The cell suspension was dispensed to a. plate containing a test compound at 100 μL per well and incubated at 37° C. in a 5% carbon dioxide gas incubator. 96 hours later, 80 μL of CellTiter-Glo (Promega) was added to each well and fluorescence was measured.

`CC[C@H](C)[C@@H]1NC(=O)[C@H](CC(C)C)N(C)C(=O)C[C@@H](C)NC(=O)[C@H](C(C)C)N(C)C(=O)C2(CCCC2)NC(=O)[C@@H]2CCCN2C(=O)[C@H](CCc2ccc(C(F)(F)F)c(Cl)c2)NC(=O)CN(C)C(=O)[C@H](Cc2ccccc2F)N(C)C(=O)CN(C)C(=O)CN(C)C1=O` [Compound 1585] (cyclo([Ac5c][NMeV][d(β3hA)][NMeL]I[Sar][Sar][NMePhe(2-F)][Sar][hPhe(3-Cl-4-CF3)]P)) was tested. Which IC50 did it give?
The IC50 was greater than 500 nM.

How did the IC50 turn out when `CC(C)C[C@H]1C(=O)N[C@@H](COC2CCC2)C(=O)N(C)CC(=O)N(C)CC(=O)N(C)[C@@H](CC2CCCCC2)C(=O)N(C)CC(=O)N[C@@H](CCc2ccc(C(F)(F)F)c(Cl)c2)C(=O)N2CCC[C@H]2C(=O)NC2(CCCC2)C(=O)N(C)[C@@H](C2CCCCC2)C(=O)N(C)[C@H](C(=O)N2CCCCC2)CC(=O)N1C` [Compound 226] ([NMeL]S(Cyclobutyl)[Sar][Sar][NMeCha][Sar][hPhe(3-Cl-4-CF3)]P[Ac5c][NMeChg][NMeD]-Piperidide; lactam N-11) was run?
The IC50 was greater than 500 nM.

For `CC(C)C[C@H]1C(=O)N[C@@H]([C@@H](C)O)C(=O)N(C)CC(=O)N(C)CC(=O)N(C)[C@@H](CC2CCCCC2)C(=O)N(C)CC(=O)N[C@@H](CCc2ccc(C(F)(F)F)c(Cl)c2)C(=O)N2CCC[C@H]2C(=O)NC2(CCCC2)C(=O)N(C)[C@@H](C2CCCCC2)C(=O)N(C)[C@H](C(=O)N2CCCCC2)CC(=O)N1C` [Compound 603] ([NMeL]T[Sar][Sar][NMeCha][Sar][hPhe(3-Cl-4-CF3)]P[Ac5c][NMeChg][NMeD]-Piperidide; lactam N-11), which IC50 is on record?
The IC50 was greater than 500 nM.

With `CC[C@H](C)[C@@H]1NC(=O)[C@H](CC(C)C)N(C)C(=O)C[C@@H](C)NC(=O)[C@H](C(C)C)N(C)C(=O)C2(CCCC2)NC(=O)[C@@H]2CCCN2C(=O)[C@H](CCc2ccc(C(F)(F)F)c(Cl)c2)NC(=O)CN(C)C(=O)[C@H](CC2CCCCC2)N(C)C(=O)CN(CCC(C)C)C(=O)CN(C)C1=O` [Compound 801] (cyclo([Ac5c][NMeV][d(β3hA)][NMeL]I[Sar][N(isopentyl)Gly][NMeCha][Sar][hPhe(3-Cl-4-CF3)]P)) as the molecule, how does the IC50 read?
Its IC50 is greater than 500 nM.

For `C#CC[C@@H]1NC(=O)[C@H](Cc2cccc(I)c2)NC(=O)CN(C)C(=O)[C@H](Cc2ccc(OC(F)(F)F)cc2)N(C)C(=O)[C@@H]2CCN2C(=O)[C@H](C)N(C)C(=O)[C@H]([C@@H](C)CC)NC(=O)[C@H](CC(C)C)N(C)C(=O)C[C@@H](C(=O)N2CCCCC2)N(C)C(=O)[C@H](CC(C)C)NC(=O)C(C)(C)N(C)C1=O` [Compound 1288] ([NMeL]I[NMeA][Aze][NMeY](CF3)[Sar][Phe(3-I)][Pra][NMeAib]L[NMeD]-Piperidide; lactam N-11), which IC50 is on record?
Its IC50 is greater than 500 nM.

Which IC50 does the source give for `CC[C@H](C)[C@@H]1NC(=O)[C@H](CC(C)C)N(C)C(=O)C[C@@H](C)N(C)C(=O)[C@H](CC(C)C)NC(=O)C(C)(C)N(C)C(=O)[C@H](CC(C)C)NC(=O)[C@H](CCc2ccc(C(F)(F)F)c(F)c2)NC(=O)CN(C)C(=O)[C@H](CC2CCCCC2)N(C)C(=O)[C@@H]2CCN2C(=O)CN(C)C1=O` [Compound 178] (cyclo([Aze][NMeCha][Sar][hPhe(3-F,4-CF3)]L[NMeAib]L[NMedβ3hAla][NMeL]I[Sar])) here?
Its IC50 is greater than 500 nM.

How did the IC50 turn out when `CC[C@H](C)[C@@H]1NC(=O)[C@H](C)N(C)C(=O)C[C@@H](C)NC(=O)[C@H](C2CCCC2)N(C)C(=O)C2(CCCC2)NC(=O)[C@@H]2CCCN2C(=O)[C@H](CCc2ccc(C(F)(F)F)c(Cl)c2)NC(=O)CN(C)C(=O)[C@H](CC2CCCCC2)N(C)C(=O)CN(C)C(=O)CN(C)C1=O` [Compound 1478] (cyclo([Ac5c][NMeGly(cPent)][d(β3hA)][NMeA]I[Sar][Sar][NMeCha][Sar][hPhe(3-Cl-4-CF3)]P)) was run?
Its IC50 is greater than 500 nM.

`CC[C@H](C)[C@@H]1NC(=O)[C@H](CC(C)C)N(C)C(=O)C[C@@H](C(=O)N2CCCCC2)N(C)C(=O)[C@H](COCC(F)(F)F)N(C)C(=O)C2(CCCC2)NC(=O)[C@@H]2CCCN2C(=O)[C@H](CCc2ccc(C(F)(F)F)c(Cl)c2)NC(=O)CN(C)C(=O)[C@H](CC2CCCCC2)N(C)C(=O)CN(C)C(=O)CN(C)C1=O` [Compound 208] ([NMeL]I[Sar][Sar][NMeCha][Sar][hPhe(3-Cl-4-CF3)]P[Ac5c][NMeS](Trifluoroethyl)[NMeD]-Piperidide; lactam N-11) was tested. Which IC50 did it give?
Its IC50 is greater than 500 nM.
